Source: PMC3808539, “CtpB Assembles a Gated Protease Tunnel Regulating Cell-Cell Signaling during Spore Formation in Bacillus subtilis” (Cell, 2013)
Ends that are not written are not given here.

Columns and labels:
CtpB = test: Degradation of in vitro translated 4FAproc constructs with distinct C termini by CtpB; format: biochemical, Bacillus subtilis; conditions: autoradiography
Procedure: 4FAproc with alternative C-termini was produced using the promega TNT Quick Coupled Transcription/Translation System, following manufactures instructions. Briefly, 40 μl of TNT Master Mix were added to 0.5 μg of template plasmid DNA and 20 μCi of ^35S-methionine (Perkinelmer). The coupled transcription-translation reaction was carried out upon incubation at 30°C for 2 hr. Relative product amounts were normalized based on ^35S-autoradiography following SDS-PAGE analysis.
To measure the proteolytic activities of the SpoIV signaling proteases, recombinant, purified proteases (CtpB, 4B or both, 3 μM) were mixed with respective 4FA model substrates (15 μM) and incubated for various times at 25°C. Reactions were stopped by adding SDS loading buffer. Subsequently, samples were incubated for 5 min at 95°C and analyzed by SDS-PAGE and Coomassie staining. […] Reaction aliquots were stopped and analyzed as described. To compare the cleavage efficiency of various CtpB mutants, the amount of 4FAproc substrate was quantified by analyzing the stained gels using the software ImageJ ([Schneider et al., 2012]). […] Reactions were analyzed by SDS–PAGE and immunoblotting using anti-GFP antibodies ([Rudner and Losick, 2002]). […] The cleavage assays were carried out as described and analyzed by SDS-PAGE and ^35S-autoradiography using Amercham Hyperfilm™ MP films.

[1] = target: T1, isolated PDZ domain of CtpB (Bacillus subtilis, UniProt O35002); test: Isothermal titration calorimetry, isolated PDZ domain; format: binding
T1 construct: His tag; made in house; host or cells: E. coli BL21(DE3)pLysS
T1 sequence (O35002 92-182): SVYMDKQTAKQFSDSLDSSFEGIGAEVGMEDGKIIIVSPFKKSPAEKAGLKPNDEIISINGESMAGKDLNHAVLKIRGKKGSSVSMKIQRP
Excerpt: (§1) Figure S4 Peptide-Binding Properties of the PDZ Domain, Related to Figure 4 (A) The C termini of B. subtilis proteins predicted to reside in the intermembrane space were synthesized on a cellulose membrane according to the method of inverted peptides. Spotted membranes were probed with either the PDZ domain of CtpB (left) or the ΔPDZ mutant (right). (B) Identified strong binding peptides were further analyzed by systematically substituting residues critical for binding to the PDZ domain of CtpB. (C) ITC analysis testing the interaction of the indicated peptides with the isolated PDZ domain and full-length CtpB (S309A). Raw data (top) and binding isotherm derived from the integrated heat (bottom) are shown. The determined KD dissociation constants are indicated below the binding curves. […] The final model is overlaid with the omit 2Fo-Fc electron density (1.9 Å resolution, contoured at 1.2 σ) calculated without peptide ligand and Arg168.
(§2) Thermodynamic values characterizing the interaction between CtpB and peptide ligands were determined by ITC (MCS-ITC; Microcal). […]
(§3) The interaction between CtpB (wild-type; mutant forms or isolated PDZ domain) and peptide ligands was characterized by ITC measurements (MCS-ITC; Microcal). […] Resulting data were analyzed with the MicroCal ORIGIN software, following the instructions of the manufacturer. […]

full-length CtpB (S309A) = target: T2, full-length CtpB (S309A) (Bacillus subtilis, UniProt O35002, S309A); test: Isothermal titration calorimetry, full-length CtpB (S309A); format: binding
T2 construct: the isolated PDZ domain and full-length CtpB (S309A); His tag; made in house; host or cells: E. coli BL21(DE3)pLysS
T2 sequence (O35002 24-480 S309A): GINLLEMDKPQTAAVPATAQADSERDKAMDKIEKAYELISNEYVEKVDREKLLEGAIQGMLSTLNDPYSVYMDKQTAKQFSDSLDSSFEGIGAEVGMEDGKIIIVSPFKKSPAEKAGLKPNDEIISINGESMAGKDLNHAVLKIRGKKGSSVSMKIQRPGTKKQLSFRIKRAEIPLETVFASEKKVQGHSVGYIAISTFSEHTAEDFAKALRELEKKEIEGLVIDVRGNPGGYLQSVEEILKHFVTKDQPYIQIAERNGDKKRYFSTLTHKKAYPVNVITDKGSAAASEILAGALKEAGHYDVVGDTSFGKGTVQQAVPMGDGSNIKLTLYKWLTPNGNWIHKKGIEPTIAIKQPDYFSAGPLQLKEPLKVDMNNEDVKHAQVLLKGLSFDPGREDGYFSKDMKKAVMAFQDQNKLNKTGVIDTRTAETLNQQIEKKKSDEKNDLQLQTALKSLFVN
Excerpt: as §1, §2, §3

CtpB R168A = target: T3, CtpB R168A (Bacillus subtilis, UniProt O35002, R168A); test: Isothermal titration calorimetry, full-length CtpB R168A; format: binding
T3 construct: with the full-length CtpB variants R168A, R168F and V118Y; His tag; made in house; host or cells: E. coli BL21(DE3)pLysS
T3 sequence (O35002 24-480 R168A): as the sequence (O35002 24-480 S309A) above, with R145A, A286S counted along it
Procedure: (§4) Figure S5 Peptide Binding to the PDZ Domain Stabilizes the Active Protease State of CtpB, Related to Figure 5 (A) The interfaces of the PDZ domain with the other domains of CtpB were analyzed to evaluate the prevailing conformation of CtpB in solution. The ribbon representations of CtpBi (left) and CtpBa1 (right) emphasize the PDZ domain that is shown in yellow. Interactions stabilizing the respective domain interfaces (summarized in top panel) are highlighted in orange and the residues forming hydrogen-bonds are listed. […] (B) ITC analysis characterizing the interaction of a peptide having an Ala-Tyr-Ala C terminus with the full-length CtpB variants R168A, R168F and V118Y. Raw data (top) and binding isotherm derived from the integrated heat (bottom) are shown. The determined KD dissociation constants are indicated below the binding curves. (C) Left: a ribbon model of the CtpB V118Y mutant structure, which was crystallized in the same resting conformation as CtpBi. […]
as §2, §3

CtpB R168F = target: T4, CtpB R168F (Bacillus subtilis, UniProt O35002, R168F); test: Isothermal titration calorimetry, full-length CtpB R168F; format: binding
T4 construct: with the full-length CtpB variants R168A, R168F and V118Y; His tag; made in house; host or cells: E. coli BL21(DE3)pLysS
T4 sequence (O35002 24-480 R168F): as the sequence (O35002 24-480 S309A) above, with R145F, A286S counted along it
Procedure: as §4, §2, §3

CtpB S309A mutant = test: Cocrystallization of CtpB S309A with peptide; format: binding, Bacillus subtilis; conditions: S309A/VPA complex, 1.9 Å, 20 mg/ml CtpB incubated with 1 mM peptide for 1 hr at 19°C
Procedure: CtpB crystals were grown at 19°C by the sitting-drop vapor-diffusion method using a 2:1 mixture of protein (20 mg/ml) and reservoir solution. […] Finally, diffraction data of CtpBi/VPA was collected at Deutsches Elektronen-Synchrotron (DESY, beamline P14) using a Pilatus detector (Dectris). Integration and scaling of diffraction data were performed with the programs DENZO, and [sequence]
For all other structures, phases were determined by molecular replacement using the program PHASER ([McCoy et al., 2007]) and the structure of CtpBa1 as search model. In all cases, energy restrained refinement was performed with the programs CNS ([Brünger et al., 1998]) and PHENIX ([Adams et al., 2010]), utilizing bulk solvent and anisotropic B-factor corrections depending on the development of the Rfree index. Refinement was performed in multiple cycles, interrupted for manual model re-building with the program O ([Jones et al., 1991]). Final models were verified with the program MolProbity ([Chen et al., 2010]) and crystal contacts analyzed using the PISA algorithm implemented on the Protein Data Bank Europe website ([Krissinel and Henrick, 2007]).

PDZ domain of CtpB = test: Peptide spot assay; format: binding, Bacillus subtilis; conditions: inverted peptide array on cellulose membrane; CtpB variants 10 μg/ml, overnight 4°C; anti-polyHis chemiluminescence
Procedure: Peptide spot libraries were generated by synthesizing the 11 C-terminal residues of 1,849 B. subtilis proteins predicted to reside in the intermembrane space onto a cellulose membrane. Membranes were blocked for 4 hr with blocking buffer (blocking reagent, Sigma-Genosys) and subsequently incubated with CtpB. Bound protein was identified using specific antibodies. Further libraries were generated, where identified peptide sequences were systematically permutated.
Peptide spot libraries were generated by synthesizing the 11 C-terminal residues of 1849 B. subtilis proteins known to reside in the intermembrane space. Peptide libraries were generated by a MultiPep SPOTrobot (INTAVIS Bioanalytical Instruments AG) using an optimized method for generating inverted peptides ([Boisguerin et al., 2007], [Volkmer, 2009]). […] Bound CtpB was detected using a mouse anti-polyHis antibody (Sigma, 1:3,000 in blocking buffer, 2 hr at RT) followed by horseradish-peroxidase conjugated anti-mouse antibody (Calbiochem, 1:2,000 in blocking buffer, 1 hr at RT). […] The signal intensities with background-subtraction were recorded as […] with a LumiImager (Boehringer) and analyzed using the LumiAnalyst software. Secondary libraries for subtitutional analyses were generated by systematically permutating identified peptides and analyzed by the described peptide spot methodology.

In the case of Ala-Pro-Ala, the “degradation by CtpB (in words)” value (CtpB; 0.3 μM wild-type CtpB, in vitro translated 35S-methionine-labeled 4FAproc constructs) is reported as “rapidly degraded” and the “efficiency in stimulating protease function” value (CtpB; 4FAproc constructs applied at decreasing concentrations, 0.3 μM CtpB) is reported as “less efficient in stimulating protease function than the Ala-Tyr-Val motif, especially at lower concentrations”.
In the case of FMLLRRKAYA, the Kd [1] is reported as 2.3 µM, the Kd (full-length CtpB (S309A)) is reported as 6.5 µM and the Kd (CtpB R168A) is reported as 21 µM. It also gave a Kd (CtpB R168F) of 40 µM.
FMLLRRKAYV was tested, and the Kd [1] was 0.9 µM.
“H-EMDKPQTAAVPA-OH [oligopeptide having a Val-Pro-Ala C terminus, cocrystallized with S309A]” was tested, and the “conformation of S309A cocrystallized with peptide” value (CtpB S309A mutant) was “active conformation” and the “conformation of S309A cocrystallized with peptide” value (CtpB S309A mutant; listed as oligopeptide having a Val-Pro-Ala C terminus) was “peptide binding itself is sufficient to transform the resting protease into the active conformation”.
For H-NLVLAGLHSYA-OH, the “binding to PDZ domain in peptide spot analysis” value (PDZ domain of CtpB) was “identified PDZ binder”.
